Source: paper PMC6445163, “Design, synthesis, and evaluation of novel 2-phenylpropionic acid derivatives as dual COX inhibitory-antibacterial agents” (Journal of Enzyme Inhibition and Medicinal Chemistry, 2017)
Converted amounts (≈) assume the structure as drawn.

Assays:
[1] = target: T1, COX-1 (Ovis aries, UniProt P05979); experiment: fluorometric COX-1 inhibitor screening kit assay; format: biochemical; conditions: for SI (selectivity index): IC50 (COX-1)/IC50 (COX-2); for IC50: fluorometric kit, 25 °C; for Selectivity: isoform preferred according to SI
T1 construct: purchased Biovision K548-100
T1 sequence (P05979 25-600): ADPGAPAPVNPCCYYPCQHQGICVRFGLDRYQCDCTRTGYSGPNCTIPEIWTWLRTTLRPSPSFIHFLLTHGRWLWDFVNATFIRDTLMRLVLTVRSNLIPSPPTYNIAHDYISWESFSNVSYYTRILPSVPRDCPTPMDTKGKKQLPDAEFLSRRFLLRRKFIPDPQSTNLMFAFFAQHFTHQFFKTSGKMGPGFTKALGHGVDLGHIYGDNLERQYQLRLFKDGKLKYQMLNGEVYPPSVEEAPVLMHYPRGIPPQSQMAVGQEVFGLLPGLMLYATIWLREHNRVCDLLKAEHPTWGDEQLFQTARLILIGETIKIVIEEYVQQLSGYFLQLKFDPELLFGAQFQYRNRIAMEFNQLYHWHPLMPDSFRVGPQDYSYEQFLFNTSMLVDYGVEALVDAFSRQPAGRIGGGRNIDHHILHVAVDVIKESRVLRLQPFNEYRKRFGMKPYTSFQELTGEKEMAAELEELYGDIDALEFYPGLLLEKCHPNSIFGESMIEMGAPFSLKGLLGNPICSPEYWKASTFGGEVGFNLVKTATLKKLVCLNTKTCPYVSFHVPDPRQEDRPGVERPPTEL
Method: (§1) Inhibitory potency of the compounds against COX-1 and COX-2 enzymes was determined using fluorometric COX-1 and COX-2 inhibitor screening kits (Biovision, Zurich, Switzerland). Experimental protocol was followed as described in the guides of the supplier[47]^,[48]. All of the pipettings in the assay were performed by Biotek Precision robotic system (BioTek Instruments, Inc., Winooski, VT). […] Appropriate two points (T1 and T2) in the linear range of the plot were chosen, and the corresponding fluorescence values (RFU1 and RFU2) were obtained. The slope for all samples, including enzyme control (EC), by dividing the net ΔRFU (RFU2–RFU1) values by the time ΔT (T2–T1) were calculated by using following equation: % Relative inhibition=(Slope of EC-Slope of S/Slope of EC)×100
(§2) This initial in vitro assay was done with two concentrations (10^−3 and 10^−4 M) for all compounds. […] The IC50 value was calculated from the plots of enzyme activity against concentrations by applying regression analyses on GraphPad Prism Version 5 (GraphPad Software, La Jolla, CA).
(§3) Selectivity indexes (SI) were expressed as IC50 (COX-1)/IC50 (COX-2). Selectivity toward COX-2 decreases as the corresponding SI decreases while selectivity toward COX-1 isoform increases as the corresponding SI decreases.

[2] = target: T2, COX-2 (Homo sapiens, UniProt P35354); experiment: fluorometric COX-2 inhibitor screening kit assay; format: biochemical; conditions: 25 °C
T2 construct: purchased Biovision K547-100
T2 sequence (P35354 18-604): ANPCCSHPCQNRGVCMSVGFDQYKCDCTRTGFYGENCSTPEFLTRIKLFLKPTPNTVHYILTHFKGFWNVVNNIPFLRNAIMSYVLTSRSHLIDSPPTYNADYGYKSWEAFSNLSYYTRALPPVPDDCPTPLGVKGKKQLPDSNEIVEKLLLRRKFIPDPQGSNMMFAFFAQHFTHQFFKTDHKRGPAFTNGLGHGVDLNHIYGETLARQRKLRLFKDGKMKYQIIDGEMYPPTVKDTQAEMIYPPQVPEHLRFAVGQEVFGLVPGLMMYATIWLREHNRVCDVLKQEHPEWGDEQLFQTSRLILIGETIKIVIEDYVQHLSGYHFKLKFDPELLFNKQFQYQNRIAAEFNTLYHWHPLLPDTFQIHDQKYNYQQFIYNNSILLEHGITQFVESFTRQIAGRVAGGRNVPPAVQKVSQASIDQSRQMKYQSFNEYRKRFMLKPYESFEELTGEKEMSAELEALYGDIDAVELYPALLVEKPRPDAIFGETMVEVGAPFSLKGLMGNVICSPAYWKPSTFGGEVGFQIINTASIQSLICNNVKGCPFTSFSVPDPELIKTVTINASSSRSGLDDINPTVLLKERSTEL
Method: as §1, §2, §3

[3] = tested on: Enterococcus faecalis (ATCC 29212); experiment: broth microdilution MIC (CLSI M07-A9), resazurin; format: cell-based; conditions: ATCC29212, 24 h
Method: (§4) Microbiological studies were performed according to following guides: CLSI reference […]-A9 broth microdilution method[49] for bacterial strains and EUCAST definitive (EDef 7.1) method[50] for Candida species. Synthesized compounds were tested for their in vitro growth inhibitory activity against Staphylococcus aureus (ATCC 25923), Enterococcus faecalis (ATCC 29212), Listeria monocytogenes (ATCC 1911), Klebsiella pneumoniae (NCTC 9633), Escherichia coli (ATCC 35218), E. coli (ATCC 25922) Candida albicans (ATCC 24433) Candida krusei (ATCC 6258) and Candida parapsilosis (ATCC 22019). Chloramphenicol and ketoconazole were used as control drugs. The cultures were obtained from the Mueller-Hinton broth (Difco) for the bacterial strains after overnight incubation at 37 °C. The yeasts were maintained in Roswell Park Memorial Institute (RPMI) after overnight incubation at 37 °C. […] Testing was carried out in Mueller-Hinton broth and RPMI at pH =7, and the two-fold serial dilutions technique was applied. The last well on the microplates containing only inoculated broth was kept as controls and the last well with no growth of microorganism was recorded to represent the minimum inhibitory concentration (MIC) expressed in μg/mL. For both the antibacterial and antifungal assays, the compounds were dissolved in DMSO. […] The completed plates were incubated for 24 h. At the end of the incubation, resazurin (20 μg/mL) was added into each well and plates were incubated for 2 h. MIC values were determined using a microplate reader at […]. Synthesized compounds (6a-6m) were evaluated for antimicrobial activity against various microorganisms such as Staphylococcus aureus (ATCC 25923), Enterococcus faecalis (ATCC 29212), Listeria monocytogenes (ATCC 1911), Klebsiella pneumoniae (NCTC 9633), Escherichia coli (ATCC 35218), E. coli (ATCC 25922)Candida albicans (ATCC 24433) Candida krusei (ATCC 6258) and Candida parapsilosis (ATCC 22019). […] Chloramphenicol and ketoconazole were used as standard drugs in the activity test. […] Besides, the compounds 6d, 6h, 6l and 6m indicated stronger antibacterial activity than the other compounds in the series.

[4] = tested on: Escherichia coli (ATCC 25922); experiment: broth microdilution MIC (CLSI M07-A9), resazurin; format: cell-based; conditions: ATCC25922, 24 h, read-out: MIC Ec-2
Method: as §4

[5] = tested on: Escherichia coli (ATCC 35218); experiment: broth microdilution MIC (CLSI M07-A9), resazurin; format: cell-based; conditions: ATCC35218, 24 h, read-out: MIC Ec-1
Method: as §4

[6] = tested on: Klebsiella pneumoniae (NCTC 9633); experiment: broth microdilution MIC (CLSI M07-A9), resazurin; format: cell-based; conditions: 24 h
Method: as §4

[7] = tested on: Listeria monocytogenes (ATCC 1911); experiment: broth microdilution MIC (CLSI M07-A9), resazurin; format: cell-based; conditions: ATCC1911, 24 h
Method: as §4

[8] = tested on: Staphylococcus aureus (ATCC 25923); experiment: broth microdilution MIC (CLSI M07-A9), resazurin; format: cell-based; conditions: ATCC25923, 24 h
Method: as §4

[9] = tested on: Candida albicans (ATCC 24433); experiment: broth dilution MIC (EUCAST EDef 7.1), resazurin; format: cell-based; conditions: ATCC24433, 24 h
Method: as §4

[10] = tested on: Candida krusei (ATCC 6258); experiment: broth dilution MIC (EUCAST EDef 7.1), resazurin; format: cell-based; conditions: Pichia kudriavzevii, ATCC6258, 24 h
Method: as §4

[11] = tested on: Candida parapsilosis (ATCC 22019); experiment: broth dilution MIC (EUCAST EDef 7.1), resazurin; format: cell-based; conditions: ATCC22019, 24 h
Method: as §4

| SI (selectivity index) [1] | IC50 [1] [µM] | Selectivity [1] | IC50 [2] [µM] | MIC [3] [µg/mL] | MIC [4] [µg/mL] | MIC [5] [µg/mL] | MIC Kp [6] [µg/mL] | MIC [7] [µg/mL] | MIC [8] [µg/mL] | MIC [9] [µg/mL] | MIC [10] [µg/mL] | MIC [11] [µg/mL] | melting point [°C] | SMILES |
| --- | --- | --- | --- | --- | --- | --- | --- | --- | --- | --- | --- | --- | --- | --- |
| 0.59 | 22.2 | COX-1 | 37.8 | 12.5 (≈ 44.4 µM) | 12.5 (≈ 44.4 µM) | 6.25 (≈ 22.2 µM) | 6.25 (≈ 22.2 µM) | 12.5 (≈ 44.4 µM) | 12.5 (≈ 44.4 µM) | 100 (≈ 355 µM) | 100 (≈ 355 µM) | 100 (≈ 355 µM) | 154.2 to 156.3 | CC(C(=O)O)c1ccc(CSC2=NCCS2)cc1 (centres unmarked) [Compound 6a, 2-(4-(((4,5-Dihydrothiazol-2-yl)thio)methyl)phenyl)propanoic acid] |
| 0.62 | 5.9 | COX-1 | 9.56 | 12.5 (≈ 40 µM) | 12.5 (≈ 40 µM) | 6.25 (≈ 20 µM) | 6.25 (≈ 20 µM) | 12.5 (≈ 40 µM) | 12.5 (≈ 40 µM) | 100 (≈ 320 µM) | 100 (≈ 320 µM) | 50 (≈ 160 µM) | 208.7 to 210.9 | CC(C(=O)O)c1ccc(CSc2nc3ccccc3[nH]2)cc1 (centres unmarked) [Compound 6i, 2-(4-(((1H-benzo[d]imidazol-2-yl)thio)methyl)phenyl)propanoic acid] |
| 0.58 | 2.46 | COX-1 | 4.25 | 12.5 (≈ 34.4 µM) | 12.5 (≈ 34.4 µM) | 6.25 (≈ 17.2 µM) | 12.5 (≈ 34.4 µM) | 12.5 (≈ 34.4 µM) | 12.5 (≈ 34.4 µM) | 100 (≈ 275 µM) | 100 (≈ 275 µM) | 50 (≈ 137 µM) | 162.3 to 164.7 | CC(C(=O)O)c1ccc(CSc2nc3cc(Cl)ccc3s2)cc1 (centres unmarked) [Compound 6g, 2-(4-(((5-Chlorobenzo[d]thiazol-2-yl)thio)methyl)phenyl)propanoic acid] |
| 0.60 | 21.8 | COX-1 | 36.3 | 12.5 (≈ 44.9 µM) | 12.5 (≈ 44.9 µM) | 6.25 (≈ 22.5 µM) | 6.25 (≈ 22.5 µM) | 12.5 (≈ 44.9 µM) | 12.5 (≈ 44.9 µM) | 50 (≈ 180 µM) | 50 (≈ 180 µM) | 50 (≈ 180 µM) |  | CC(C(=O)O)c1ccc(CSc2nnnn2C)cc1 (centres unmarked) [Compound 6e, 2-(4-(((1-Methyl-1 H-tetrazol-5-yl)thio)methyl)phenyl)propanoic acid] |
| 0.59 | 38.2 | COX-1 | 64.3 | 50 (≈ 304 µM) | 50 (≈ 304 µM) | 25 (≈ 152 µM) | 50 (≈ 304 µM) | 50 (≈ 304 µM) | 50 (≈ 304 µM) | 100 (≈ 609 µM) | 50 (≈ 304 µM) | 50 (≈ 304 µM) |  | Cc1ccc(C(C)C(=O)O)cc1 (centres unmarked) [Compound 4, 2-(4-methylphenyl) propionic acid] |
